This is an account of results in publication PMC3071440 (Journal of medicinal chemistry, 2010).

Series [1] can be described thus: In vivo PK in rats following oral administration. The settings on record: rat, oral 10 mg/kg, harvested at or near Tmax.
The conditions of series [2]: rat, oral 10 mg/kg; cited from earlier work.

For `O=C(O)c1cc(-c2cccc(COc3ccc4c(c3)CN(C3CCCC3)C4=O)c2)ccc1Cl` [Compound 8a, 4-Chloro-3′-((2-cyclopentyl-1-oxoisoindolin-5-yloxy)-methyl)biphenyl-3-carboxylic acid], the Brain level in series [1] came to 3.8 ± 1.2 µM. In the case of `Cc1c(OCc2cccc(-c3ccc(C(=O)O)cc3)c2)cc2c(c1C)C(=O)C(C1CCCC1)C2` (centres unmarked) [Compound 1, 3′-((2-cyclopentyl-6,7-dimethyl-1-oxo-2,3-dihydro-1H-inden-5-yloxy)methyl)biphenyl-4-carboxylic acid], in series [2], the “brain levels following oral dosing” value is “below the limit of quantitation”.
